Legend:
[1] = tested on: colonic cells of the GI tract obtained from guinea pig; test: Ex vivo GLP-1 biosynthesis and secretion, guinea pig GI tract cells; format: cell-based
Procedure, shortened: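 Colonic/rectal crypts and cells from a pregnant guinea pig, collagenase-P digested and cultured one day on Matrigel, then exposed 2 h at 37 °C in serum-free DMEM with KR-62436 10 μg/ml and compound (20 μM, quadruplicate; EC50 also determined). Active GLP-1 in supernatant measured by ELISA, normalised to DMSO control.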

[2] = tested on: primary culture of mixed colonic preparations; test: GLP-1 secretion by mixed primary colonic culture; format: cell-based, mice
From the text: Mice were euthanized, and 5 cm of colon were used for isolation of epithelial cells following as previously described by Reimann, F., Habib, A. M., Tolhurst, G., Parker, H. E., Rogers, G. J., & Gribble, F. M. (2008), Cell Metabolism, Vol 8(6), pp 532-539, the disclosure of which is incorporated herein by reference in its entirety. Briefly, colon segments were dissected from 10 week-old C57BL/6 male mice. Segments were cut open longitudinally and washed quickly in DMEM (serum-free) to remove luminal contents. Colon was chopped into about 1-2 mm pieces and digested with about 0.5 mg/ml collagenase-P for 15 min. Resulting cell suspensions were filtered through 70 μm nylon cell strainers (BD Falcon, UK), centrifuged at 300 g for 5 min, and pellets re-suspended in DMEM supplemented with 10% FBS. The purified cells were collected and cultured on 24-well Matrigel-coated plates at 37° C. in DMEM (25 mM glucose), 10% FBS, 2 mM L-glutamine, 1% penicillin/streptomycin. On the day of GLP-1 assay, cells were washed twice with PBS, and then treated with LPI or vehicle Methanol: Chloroform, (M:C), v/v for 2 h at 37° C. Supernatants were collected for GLP-1 quantification using the active GLP-1 ELISA kit from Millipore. […]

pancreatic islets = test: Glucose-stimulated insulin secretion (GSIS) of isolated islets; format: cell-based, mice; settings: 16.7 mM glucose
Procedure: After euthanasia, pancreatic islets were isolated as described in detail elsewhere (Carter, J. D., S. B. Dula, K. L. Corbin, R. P. Wu and C. S. Nunemaker (2009), Biological Procedures Online, Vol 11(1), pp:3-31). Following purification, islets were rested overnight at 37° C. in a humidified atmosphere of 95% air and 5% CO2 in RPMI 1640 medium supplemented with 10% FBS, 100 units/ml penicillin and 0.1 mg/ml streptomycin.
Glucose-stimulated insulin secretion (GSIS) was performed on isolated mouse islets after resting them overnight in supplemented RPMI 1640 medium at 37° C. in a humidified atmosphere of 95% air and 5% CO2. Briefly, islets were hand-picked and placed in groups of five into individual micro centrifuge tubes. Islets were washed twice, then incubated with Krebs buffer (KRB, 115 mM NaCl; 4.7 mM KCl; 1.28 mM CaCl2·2H2O; 1.2 mM KH2PO4; 1.2 mM MgSO4·7H2O; 10 mM NaHCO3; 10 mM HEPES; 0.5% BSA; pH 7.4) supplemented with 1.1 mM glucose for 40 minutes at 37° C. Supernatants were discarded, then islets were incubated with KRB supplemented with 16.7 mM glucose for 20 minutes. Supernatants were collected for insulin determination using Mouse Ultrasensitive Insulin ELISA (Mercodia, Uppsala, Sweden) according to manufacturer instructions and data was reported as picograms of Insulin per islet in 20 minutes (pg/islet/20 min).

**Q.** For “oleoyl-lysophosphatidylinositol [oleoyl-LPI]”, which “GLP-1 biosynthesis and secretion ex vivo” value ([1]; 20 μM, 2 hours, standardized against DMSO control) is on record?
**A.** stimulated biosynthesis and secretion

**Q.** And the EC50 ([1]; ex vivo incubation 2 hours, quadruplicates)?
**A.** 32.7 µM

**Q.** What about the GLP-1 release ([2]; GPR119−/− mice compared to wild type control) of the same substance?
**A.** unable to induce GLP-1 release

**Q.** And the “GLP-1 levels, from the basal secretion” value ([2]; wild type mice, two hours treatment)?
**A.** 131±32%

**Q.** What about the “insulin secretion response to stimulation” value (pancreatic islets; GPR119−/− islets) of the same substance?
**A.** completely lost the ability to respond

**Q.** What about the “enhancement of acute insulin secretion” value (pancreatic islets; wild type islets, oleoyl-LPI 20 μM, 20 minutes) of the same substance?
**A.** approximately 50%

— US12503426B2, “Synthetic derivatives of oleoyl-lysophosphatidylinositol (oleoyl-LPI) and uses thereof” (LIPOVEXA SRL, priority 2017, dated 2025)
